From patent publication US8853224B2 (priority 2006, dated 2014)

target: Plasmodium falciparum purine nucleoside phosphorylase (PfPNP) (Plasmodium falciparum (isolate 3D7), UniProt Q8I3X4); assay: biochemical
Source text: For inhibitors without slow-onset properties, fits to the same equation were made, but using initial reaction rates.

Structure (SMILES) | Kd [µM]
O=c1[nH]cnc2c(CNCC(CO)CO)c[nH]c12 [Example 8, 7-((3-hydroxy-2-(hydroxymethyl)propylamino)methyl)-3H-pyrrolo[3,2-d]pyrimidin-4(5H)-one] | 0.21 ± 0.05
O=c1[nH]cnc2c(CNC[C@@H](O)[C@H](O)CO)c[nH]c12 (racemic) [Example 20.5, 7-(((2RS,3RS)-2,3,4-trihydroxybutylamino)methyl)-3H-pyrrolo[3,2-d]pyrimidin-4(5H)-one] | 32 ± 2
O=c1[nH]cnc2c(CNC[C@H](O)[C@H](O)CO)c[nH]c12 [Example 19.3, 7-(((2S,3R)-2,3,4-trihydroxybutylamino)methyl)-3H-pyrrolo[3,2-d]pyrimidin-4(5H)-one] | 12 ± 2
